The results in this text go back to the supplement of paper PMC10307832.

Holding throughout (test): relative viability (nuclei count vs DMSO), 5 days (fraction); higher = more cells survive
Compound in one test: CN(C)C(=N)NC(=N)N [Metformin]
In a few lines: (§1)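 Lung cancer cell lines in 1536-well plates were exposed by pinning to five library-drug doses (not always all listed) √10 apart, following an overnight hold at 37 °C. MetaXpress counted Hoechst-stained nuclei from 4× images taken after 5 days without medium change. Viability is the median ratio of treated-well to vehicle-well nuclei across plates. Plates required control CV below 25% and at least one doubling.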

Compound in a further test: N#CC1(c2ccc(NC(=O)c3cccnc3NCc3ccncc3)cc2)CCCC1 [Apatinib]
A digest of the protocol: as §1

Compound in the test “Metformin + Alpelisib”: CN(C)C(=N)NC(=N)N [Metformin] + Cc1nc(NC(=O)N2CCC[C@H]2C(N)=O)sc1-c1ccnc(C(C)(C)C(F)(F)F)c1 [Alpelisib] (partner 2 µM)
In a few lines: (§2)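 Relative viability equals treated-well nuclei counts divided by vehicle-well nuclei counts. Counts came from 4× images of lung cancer cell lines grown in 1536-well plates for 5 days after pin-tool dosing on the day after seeding. Dosing used one drug alone or a fixed anchor-drug dose plus five library-drug doses (not always all listed) in √10 steps, and values are medians of duplicate plates.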

Compound in the test “Apatinib + Pemetrexed”: N#CC1(c2ccc(NC(=O)c3cccnc3NCc3ccncc3)cc2)CCCC1 [Apatinib] + Nc1nc2[nH]cc(CCc3ccc(C(=O)N[C@@H](CCC(=O)O)C(=O)O)cc3)c2c(=O)[nH]1 [Pemetrexed] (partner 0.2 µM)
A digest of the protocol:
as §2

As to COR-L23, the relative viability with Metformin (10 µM) is 0.979; with Metformin (31.62 µM) it was 1.06; with Metformin (100 µM), 0.974; with Metformin (316.23 µM) it was 0.977; in the test with Metformin (1000 µM), 1; with Apatinib (0.08 µM), 1.04. In addition, the relative viability in the test with Apatinib (0.253 µM) worked out at 0.942; with Apatinib (0.8 µM), 1.05; with Apatinib (2.53 µM), 0.914; with Apatinib (8 µM), 0.865; with Metformin + Alpelisib (first compound 10 µM), 0.633; with Metformin + Alpelisib (first compound 31.62 µM), 0.721. Besides, the relative viability is 0.72 in the test with Metformin + Alpelisib (first compound 100 µM); 0.564 with Metformin + Alpelisib (first compound 316.23 µM); 0.7 in the test with Metformin + Alpelisib (first compound 1000 µM); 0.194 with Apatinib + Pemetrexed (first compound 0.08 µM); 0.191 with Apatinib + Pemetrexed (first compound 0.253 µM); 0.192 with Apatinib + Pemetrexed (first compound 0.8 µM). Besides, the relative viability stood at 0.199 in the test with Apatinib + Pemetrexed (first compound 2.53 µM) and 0.177 in the test with Apatinib + Pemetrexed (first compound 8 µM).

COR-L 105: the relative viability with Metformin (10 µM) is 1.02; with Metformin (31.62 µM), 1.04; with Metformin (100 µM), 1.16; with Metformin (316.23 µM), 0.994; with Metformin (1000 µM), 0.964; in the test with Apatinib (0.08 µM), 0.976. Further, the relative viability with Apatinib (0.253 µM) came to 1.04; with Apatinib (0.8 µM) it was 0.85; with Apatinib (2.53 µM), 0.814; with Apatinib (8 µM) it was 0.855; with Metformin + Alpelisib (first compound 10 µM), 1.14; with Metformin + Alpelisib (first compound 31.62 µM) it was 1.33. The relative viability came to 1.07 in the test with Metformin + Alpelisib (first compound 100 µM); 0.963 with Metformin + Alpelisib (first compound 316.23 µM); 0.802 in the test with Metformin + Alpelisib (first compound 1000 µM); 1.27 with Apatinib + Pemetrexed (first compound 0.08 µM); 1.21 with Apatinib + Pemetrexed (first compound 0.253 µM); 1.04 with Apatinib + Pemetrexed (first compound 0.8 µM). Moreover, the figures for the relative viability in the test with Apatinib + Pemetrexed (first compound 2.53 µM) and with Apatinib + Pemetrexed (first compound 8 µM) were 0.895 and 1.05, respectively.

As to EKVX, the relative viability with Metformin (10 µM) was found to be 0.756; with Metformin (31.62 µM), 0.95; with Metformin (100 µM), 1.07; with Metformin (316.23 µM) it was 0.922; with Metformin (1000 µM) it was 1.03; with Apatinib (0.08 µM) it was 0.869. Moreover, the relative viability with Apatinib (0.253 µM) was found to be 0.904; in the test with Apatinib (0.8 µM) it was 0.984; in the test with Apatinib (2.53 µM), 0.873; with Apatinib (8 µM), 0.877; with Metformin + Alpelisib (first compound 10 µM), 0.656; with Metformin + Alpelisib (first compound 31.62 µM), 0.934. The relative viability with Metformin + Alpelisib (first compound 100 µM) stood at 0.88; with Metformin + Alpelisib (first compound 316.23 µM), 0.812; with Metformin + Alpelisib (first compound 1000 µM), 0.835; with Apatinib + Pemetrexed (first compound 0.08 µM) it was 0.434; with Apatinib + Pemetrexed (first compound 0.253 µM), 0.357; with Apatinib + Pemetrexed (first compound 0.8 µM), 0.379. The relative viability with Apatinib + Pemetrexed (first compound 2.53 µM) is 0.342; with Apatinib + Pemetrexed (first compound 8 µM), 0.346.

On to EMC-BAC-2, for which the relative viability stood at 0.944 with Metformin (10 µM); 0.99 with Metformin (31.62 µM); 0.788 in the test with Metformin (100 µM); 0.94 with Metformin (316.23 µM); 0.968 in the test with Metformin (1000 µM); 0.772 in the test with Apatinib (0.08 µM). In addition, the relative viability with Apatinib (0.253 µM) was found to be 0.994; in the test with Apatinib (0.8 µM), 0.957; with Apatinib (2.53 µM), 0.8; in the test with Apatinib (8 µM) it was 0.811; with Metformin + Alpelisib (first compound 10 µM), 0.612; in the test with Metformin + Alpelisib (first compound 31.62 µM), 0.704. Moreover, the relative viability with Metformin + Alpelisib (first compound 100 µM) was 0.675; with Metformin + Alpelisib (first compound 316.23 µM) it was 0.639; with Metformin + Alpelisib (first compound 1000 µM) it was 0.674; in the test with Apatinib + Pemetrexed (first compound 0.08 µM), 0.452; with Apatinib + Pemetrexed (first compound 0.253 µM), 0.465; with Apatinib + Pemetrexed (first compound 0.8 µM) it was 0.422. Moreover, the results for the relative viability with Apatinib + Pemetrexed (first compound 2.53 µM) and with Apatinib + Pemetrexed (first compound 8 µM) were 0.406 and 0.401, respectively.

Take EPLC-272H: the relative viability was found to be 0.9 with Metformin (10 µM); 1.16 with Metformin (31.62 µM); 0.923 with Metformin (100 µM); 0.935 with Metformin (316.23 µM); 1.09 in the test with Metformin (1000 µM); 1.01 in the test with Apatinib (0.08 µM). The relative viability with Apatinib (0.253 µM) worked out at 1.02; with Apatinib (0.8 µM), 0.914; with Apatinib (2.53 µM) it was 0.774; in the test with Apatinib (8 µM), 0.691; in the test with Metformin + Alpelisib (first compound 10 µM), 1.15; with Metformin + Alpelisib (first compound 31.62 µM) it was 1.04. Also, the relative viability in the test with Metformin + Alpelisib (first compound 100 µM) amounted to 1.1; with Metformin + Alpelisib (first compound 316.23 µM), 1.04; in the test with Metformin + Alpelisib (first compound 1000 µM) it was 1.13; with Apatinib + Pemetrexed (first compound 0.08 µM), 0.275; with Apatinib + Pemetrexed (first compound 0.253 µM), 0.333; with Apatinib + Pemetrexed (first compound 0.8 µM) it was 0.359. For the same cell line, the results for the relative viability with Apatinib + Pemetrexed (first compound 2.53 µM) and in the test with Apatinib + Pemetrexed (first compound 8 µM) were 0.322 and 0.199, respectively.

Turning to H3255, the relative viability is 0.839 in the test with Metformin (10 µM); 1.09 with Metformin (31.62 µM); 0.967 with Metformin (100 µM); 0.909 with Metformin (316.23 µM); 0.841 in the test with Metformin (1000 µM); 0.979 in the test with Apatinib (0.08 µM). The relative viability was 0.935 with Apatinib (0.253 µM); 0.964 with Apatinib (0.8 µM); 0.859 in the test with Apatinib (2.53 µM); 0.916 with Apatinib (8 µM); 0.697 with Metformin + Alpelisib (first compound 10 µM); 0.783 in the test with Metformin + Alpelisib (first compound 31.62 µM). Further, the relative viability with Metformin + Alpelisib (first compound 100 µM) came out at 0.712; in the test with Metformin + Alpelisib (first compound 316.23 µM), 0.339; with Metformin + Alpelisib (first compound 1000 µM), 0.486; with Apatinib + Pemetrexed (first compound 0.08 µM), 0.521; with Apatinib + Pemetrexed (first compound 0.253 µM) it was 0.545; with Apatinib + Pemetrexed (first compound 0.8 µM), 0.537. Further, the relative viability stood at 0.518 with Apatinib + Pemetrexed (first compound 2.53 µM) and 0.533 with Apatinib + Pemetrexed (first compound 8 µM).

As for HARA, the relative viability is 1.12 with Metformin (10 µM); 1.26 with Metformin (31.62 µM); 1.13 in the test with Metformin (100 µM); 1.06 in the test with Metformin (316.23 µM); 1.13 in the test with Metformin (1000 µM); 1.33 in the test with Apatinib (0.08 µM). The relative viability with Apatinib (0.253 µM) stood at 0.93; in the test with Apatinib (0.8 µM), 1; with Apatinib (2.53 µM) it was 0.742; with Apatinib (8 µM) it was 1.04; with Metformin + Alpelisib (first compound 10 µM), 0.915; in the test with Metformin + Alpelisib (first compound 31.62 µM), 0.902. The relative viability amounted to 1.06 in the test with Metformin + Alpelisib (first compound 100 µM); 0.89 with Metformin + Alpelisib (first compound 316.23 µM); 0.964 with Metformin + Alpelisib (first compound 1000 µM); 0.246 with Apatinib + Pemetrexed (first compound 0.08 µM); 0.227 with Apatinib + Pemetrexed (first compound 0.253 µM); 0.21 with Apatinib + Pemetrexed (first compound 0.8 µM). Besides, in the test with Apatinib + Pemetrexed (first compound 8 µM), the relative viability was found to be 0.173.
